Laboratory results as given in a compilation of properties of binary mixtures (doi:10.1021/je300093r).

Test: xn = mol fraction of the nth substance listed
Conditions: 101 kPa

CCCC[n+]1ccccc1.O=S(=O)([N-]S(=O)(=O)C(F)(F)F)C(F)(F)F + CCCC[n+]1ccccc1.F[B-](F)(F)F
viscosity [mPa·s]
Conditions	303.15 K	313.15 K	323.15 K	333.15 K	343.15 K	353.15 K
x1 = 0.0442	115.3	70.5	46.1	31.9	22.9	17.1
x1 = 0.1119	105	66.2	43.8	30.4	–	–
x1 = 0.2162	–	57.6	38.6	27.3	–	15.2
x1 = 0.3217	82.6	53.1	35.7	25.5	18.7	14.4
x1 = 0.4327	75.7	–	33.3	23.8	17.6	–
x1 = 0.5429	70.2	–	31.8	23.1	17.3	–
x1 = 0.6523	63.1	–	29.8	–	16.4	12.8
x1 = 0.7643	–	39.1	27.7	20.5	15.5	12.1
x1 = 0.8822	54.1	–	25.8	19.2	–	11.5
x1 = 0.9467	52	35	25	18.5	14.1	11.1
x1 = 1	49.4	33.8	–	17.9	13.7	–

CCCC[n+]1ccccc1.F[B-](F)(F)F + CCCC[n+]1ccccc1.O=S(=O)([N-]S(=O)(=O)C(F)(F)F)C(F)(F)F
x2 = 0
Conditions	viscosity [mPa·s]
313.15 K	74.8
323.15 K	48.1
333.15 K	33
343.15 K	23.8
